Reference: BindingDB's records for PubMed 11303063 (Creighton University, 2001)
Values joined by “and” are separate entries in the source; they are usually repeats but may differ in a detail not shown here. Identical values can stand only once.

Molecular target: Muscarinic acetylcholine receptor M3 (Rattus norvegicus, UniProt P08483)
Sequence (P08483 whole entry): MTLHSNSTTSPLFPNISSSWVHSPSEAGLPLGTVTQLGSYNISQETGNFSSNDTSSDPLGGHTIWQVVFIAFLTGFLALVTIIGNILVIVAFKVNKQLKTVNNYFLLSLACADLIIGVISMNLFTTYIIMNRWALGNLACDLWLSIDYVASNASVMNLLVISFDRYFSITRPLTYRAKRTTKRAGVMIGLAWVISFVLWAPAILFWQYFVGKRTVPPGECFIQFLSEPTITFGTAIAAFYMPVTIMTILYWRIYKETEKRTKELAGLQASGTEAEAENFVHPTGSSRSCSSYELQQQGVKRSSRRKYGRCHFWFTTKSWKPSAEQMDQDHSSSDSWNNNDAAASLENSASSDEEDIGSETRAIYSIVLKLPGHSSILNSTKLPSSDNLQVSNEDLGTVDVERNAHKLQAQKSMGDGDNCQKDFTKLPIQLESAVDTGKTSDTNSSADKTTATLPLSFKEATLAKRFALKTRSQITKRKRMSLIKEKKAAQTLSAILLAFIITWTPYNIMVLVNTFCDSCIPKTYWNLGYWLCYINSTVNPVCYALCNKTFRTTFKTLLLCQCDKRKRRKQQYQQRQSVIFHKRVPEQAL

## COc1ccccc1CNCCCCCCNCCCCCCCCNCCCCCCNCc1ccccc1OC [METHOCTRAMINE]
  Ki: 1400 nM and 1700 nM

## CN(CCCCCCCCN(C)CCCCCCN(CC(=O)N1c2ccccc2C(=O)Nc2cccnc21)CC(=O)N1c2ccccc2C(=O)Nc2cccnc21)CCCCCCNCC(=O)N1c2ccccc2C(=O)Nc2cccnc21 [NSC_132947]
  Ki: 220 nM and 180 nM
